{
  "source": "patent US20090131309A1",
  "about": "“ICA512 COUPLES INSULIN SECRETION AND GENE EXPRESSION IN BETA-CELLS” (Technische Universität Dresden Medizinizche Fakultät Carl …, priority 2004, published 2009)",
  "system": "Insulin mRNA",
  "test": "Insulin mRNA levels by real-time PCR in INS-1 cells",
  "type": "cell-based, rat",
  "conditions": "40 μM calpeptin; 2 hrs after 6 hrs stimulation and later; vs cells stimulated without calpeptin",
  "method": "Time-course stimulation of INS-1 cells. INS-1 ceils were incubated for 1 hr. in resting buffer (2.8 mM glucose and 5 mM KCl), then for 6 hrs. in resting or stimulating buffer, with or without 40 μM calpeptin, and then again in resting buffer for up to 24 hrs. Total RNA for real-time PCR was collected at time 0, 2 and 6 hrs. during stimulation and at 2, 6, 12 and 24 hrs. during the following resting period.\nReal-time PCR. Total RNA from INS-1 cells was isolated with Trizol (Invitrogen, Karlsruhe, Germany) according to the manufacturer's protocol. 1 μg of total RNA was used for the reverse transcriptase reaction, with 2 μM specific antisense primers for […] and insulin, as described (31). mRNA expression was measured by quantitative real-time PCR using the Brilliant SYBR Green QPCR (Stratagene, La Jolla, Calif.) with an Mx4000 Multiplex Quantitative Real Time PCR System (Stratagene).",
  "data": [
    {"smiles": "CCCC[C@@H](C=O)NC(=O)[C@H](CC(C)C)NC(=O)OCc1ccccc1", "note": "[calpeptin]", "values": [
      {"measurement": "insulin mRNA reduction", "value": "~40", "unit": "%"}
    ]}
  ]
}
